Test results: patent US12221423B1, “3-(3-fluorophenyl)-5-(4-methoxybenzylthio)-4-phenyl-4H-1,2,4-triazole as an antimicrobial compound” (KING FAISAL UNIVERSITY, priority 2023, dated 2025)

Experiments:
Format in all cases: cell-based
[1] = system: Bacillus Cereus; assay: Agar plate disc-diffusion, antibacterial inhibition zone; details: Bacillus Cereus (Gram positive), nutrient agar, 37° C., 48 hours
Protocol: (§1) The agar plate disc-diffusion method was applied. […] The discs were then placed onto the surface of agar plates (nutrient agar for bacteria and Sabouraud's dextrose agar for fungi) seeded with the test organism. Each plate contained 15 mL of the agar medium, previously seeded with 0.2 mL of the broth culture of each organism pregrown for 18 hours. The plates were incubated at 37° C. for 48 hours, and 72 hours for fungi. The inhibition zones were measured in mm. Discs impregnated with DMSO were used as a control, and its inhibition zone was subtracted from the tested compound actual inhibition zone.

[2] = system: Escherichia coli; assay: as above; details: Escherichia coli (Gram negative), nutrient agar, 37° C., 48 hours
Protocol: as §1

[3] = system: Pseudomonas aeruginosa; assay: as above; details: Pseudomonas aeruginosa (Gram negative), nutrient agar, 37° C., 48 hours
Protocol: as §1

[4] = system: Staphylococcus aureus; assay: as above; details: Staphylococcus aureus (Gram positive), nutrient agar, 37° C., 48 hours
Protocol: as §1

[5] = system: Aspergillus flavus; assay: Agar plate disc-diffusion, antifungal inhibition zone; details: Sabouraud's dextrose agar, 72 hours
Protocol: as §1

[6] = system: Chrysosporium keratinophilum; assay: as above; details: Sabouraud's dextrose agar, 72 hours
Protocol: as §1

[7] = A = concentration of comp. = 10,000 μL
[8] = B = concentration of comp. = 30,000 μL
[9] = C = concentration of comp. = 50,000 μL

COc1ccc(CSc2nnc(-c3cccc(F)c3)n2-c2ccccc2)cc1 [III, 3-(3-fluorophenyl)-5-(4-methoxybenzylthio)-4-phenyl-4H-1,2,4-triazole]
inhibition zone [1, 7]: 24 mm
inhibition zone [1, 8]: 27 mm
inhibition zone [1, 9]: 40 mm
inhibition zone [2, 7]: 27 mm
inhibition zone [2, 8]: 35 mm
inhibition zone [2, 9]: 48 mm
inhibition zone [3, 7]: 22 mm
inhibition zone [3, 8]: 25 mm
inhibition zone [3, 9]: 36 mm
inhibition zone [4, 7]: 16 mm
inhibition zone [4, 8]: 22 mm
inhibition zone ([4]; C = concentration of comp.): 34 mm
inhibition zone [5, 7]: 19 mm
inhibition zone [5, 8]: 22 mm
inhibition zone [5, 9]: 31 mm
inhibition zone [6, 7]: 26 mm
inhibition zone [6, 8]: 28 mm
inhibition zone [6, 9]: 42 mm
